Reference: PMC6006850, “Assessment of new HDAC inhibitors for immunotherapy of malignant pleural mesothelioma” (Clinical Epigenetics, 2018)
Like-named read-outs stand apart in the source and are kept apart here.

Key:
[1] = test system: PD-L1 (B7-H1) mRNA; assay: PD-L1 mRNA expression in MPM cells by real time PCR; conditions: for PD-L1 mRNA: HDACi 48 h combined with decitabine 500 nM (72 h pretreatment); for PD-L1 expression: two additional MPM cell lines (Meso34 and Meso45), molecule alone
Experimental: (§4) All real-time PCR reactions were performed using the Mx3005P QPCR Systems (Stratagen Products, Agilent Technologies), and the amplifications were done using the SYBR Green PCR Master Mix SAB bioscience (Qiagen) mixed with Oligonucleotides QuantiTect Primer (Qiagen). The thermal cycling conditions were composed of 1 cycle at 95 °C for 10 min, 40 cycles at 95 °C for 30 s and 60 °C for 1 min, and 1 cycle at 95 °C for 1 min, 60 °C for 30 s, and 95 °C for 30 s. The experiments were carried out in duplicate for each data point. All the qPCR data were analyzed by MxPro software.

[2] = test system: lymphocytes; assay: Cell viability (CellTiter-Glo) of lymphocytes treated with HDACi, with or without decitabine; set-up: hematological toxicity: dose or concentration left out as unconfirmed; AUC (Area Under the Curve) Lymphocytes - 5-aza: unit not given beside the values; conditions: for AUC (Area Under the Curve) Lymphocytes + 5-aza 500nM / AUC (Area Under the Curve) Lymphocytes - 5-aza: viability dose-response curve; for AUC (Area Under the Curve) Lymphocytes + 5-aza 500nM: decitabine 500 nM pretreatment; for AUC (Area Under the Curve) Lymphocytes - 5-aza: no decitabine
[3] = cited from earlier work
[4] = test system: CD8 T-cell clones; assay: Cell viability (CellTiter-Glo) of CD8 T-cell clones treated with HDACi, with or without decitabine; type: cell-based, human; set-up: AUC (Area Under the Curve) T-CD8 clones - 5-aza: unit not given beside the values; conditions: for AUC (Area Under the Curve) T-CD8 clones + 5-aza 500nM / AUC (Area Under the Curve) T-CD8 clones - 5-aza: viability dose-response curve; for AUC (Area Under the Curve) T-CD8 clones + 5-aza 500nM: decitabine 500 nM pretreatment; for AUC (Area Under the Curve) T-CD8 clones - 5-aza: no decitabine; for IC50: Homo sapiens, T-cell
[5] = test system: natural killer cells (NK) (CD56+, CD16+); assay: Flow cytometry of natural killer cell proportion in treated lymphocytes; type: cell-based, human
Experimental: (§1) For flow cytometry experiments, lymphocytes were seeded at 4 × 10^5cells/well in a flat-bottomed 96-well plate in 180 μl RPMI 1640 8% HS. […]
(§2) The day of analysis, cells were stained in a conical-bottomed 96-well plate at 10^5 cells/well. The plate was centrifuged at 800×g for 1 min, and the pellets were washed using 200 μl/well of PBS containing BSA 0.1% (wash buffer). Antibodies (see Additional file 2: Table S2) were used at a dilution of 1/30 in the wash buffer, and then, the plate was incubated at 4 °C for 30 min. Later, two washings were performed using the wash buffer prior to flow cytometry analysis. All flow cytometry data were acquired with FACScalibur (BD biosciences) using the CellQuest software (BD Biosciences) and analyzed by FlowJo software.
(§3) The aim of our strategy is to induce an anti-tumor immune response to cure malignant pleural mesothelioma by using combinations of epigenetic drugs including HDACi. Therefore, it was necessary to study the effect of these HDACi on sub-populations of lymphocytes implicated in this immune response. […] Toxicity of the compounds was tested on natural killer cells (NK) (CD56+, CD16+), on regulatory T-cells (Treg) (CD4+, CD25+, CD127 low and Foxp3+), on CD4 and CD8 naïve T-cells (CD4+, CCR7+ and CD45RA+, and CD8+, CCR7+ and CD45RA+, respectively), and on CD4 and CD8 memory T cells (CD4+ and CD45RO+, and CD8+ and CD45RO+, respectively).

[6] = test system: RIG-1 mRNA; assay: RIG-1 mRNA expression in MPM cells by real time PCR; conditions: decitabine alone
Experimental: as §4

[7] = test system: regulatory T-cells (Treg) (CD4+, CD25+, CD127 low and Foxp3+); assay: Flow cytometry of regulatory T cell proportion in treated lymphocytes; type: cell-based, human; conditions: decitabine alone 500 nM, 72 h
Experimental: as §1, §2, §3

[8] = test system: MDA5 mRNA; assay: MDA5 mRNA expression in MPM cells by real time PCR; conditions: decitabine alone
Experimental: as §4

## O=C(CCCCCCC(=O)Nc1ccccc1)NO [SAHA, Suberoylanilide hydroxamic acid]
[1]; Meso96
  PD-L1 mRNA: significant increase
[1]
  PD-L1 expression: increased
[2]; at clinical doses measured in blood from patients (approximately 1 to 4 μM)
  toxicity for lymphocytes and CD8 T-cells: toxic
[2]; lymphocytes, highest dose of compound, in the presence or not of decitabine
  cells survived: approximately 40%
[2]
  AUC (Area Under the Curve) Lymphocytes + 5-aza 500nM: 183.9
  AUC (Area Under the Curve) Lymphocytes - 5-aza: 200.5
[3]
  clinical doses measured in blood from patients: 1 to 4 µM
[3]; patients, clinical trials
  blood concentrations reach in clinic: approximately 1 μM
[4]
  AUC (Area Under the Curve) T-CD8 clones + 5-aza 500nM: 35.07
  AUC (Area Under the Curve) T-CD8 clones - 5-aza: 112.2

## CCCC(CCC)C(=O)O [VPA, valproic acid]
[5]; in comparison to untreated lymphocytes, 48 h, VPA 5 mM, SAHA 1 μM, ODB 32 μM, NODB 8 μM, ODH 4 μM, NODH 50 nM
  decrease of the proportion of NK cells: more than 50%
[1]; Meso96
  PD-L1 mRNA: significant increase
[1]
  PD-L1 expression: increased
[2]; (blood concentration observed during treatments)
  hematological toxicity: weak hematological toxicity
[2]
  AUC (Area Under the Curve) Lymphocytes + 5-aza 500nM: 208.5
  AUC (Area Under the Curve) Lymphocytes - 5-aza: 248.3
[3]; patients, clinical trials
  blood concentrations observed during treatments: approximately 1 mM
[4]; read-out: IC50 T-CD8 clones + Decitabine 500 nM, decitabine 500 nM 72 h pretreatment, then 48 h HDACi
  IC50: 20 µM
[4]; 48 h HDACi, no decitabine pretreatment, read-out: IC50 T-CD8 clones − Decitabine
  IC50: 3800 ± 60 µM
[4]
  AUC (Area Under the Curve) T-CD8 clones + 5-aza 500nM: 60.52
  AUC (Area Under the Curve) T-CD8 clones - 5-aza: 216.8

## Nc1ncn([C@H]2C[C@H](O)[C@@H](CO)O2)c(=O)n1 [decitabine, 5-Aza-2′-deoxycytidine]
[5]; decitabine alone 500 nM, 72 h
  effect on NK proportion: reduced moderately
[6]; Meso34
  RIG-1 mRNA expression: increased significantly
[6]; Meso45
  RIG-1 mRNA expression: increased significantly
[6]; Meso96
  RIG-1 mRNA expression: not
[1]; Meso96, decitabine alone 500 nM
  mRNA expression of PD-L1: did not affect
[1]
  PD-L1 expression: increased
[7]
  effect on Treg proportion: reduced moderately
[8]; Meso34
  MDA5 mRNA expression: increased significantly
[8]; Meso45
  MDA5 mRNA expression: increased significantly
[8]; Meso96
  MDA5 mRNA expression: not
